Assay results from ChEMBL document CHEMBL1201862, “PubChem BioAssay data set” (2004).
Calls of active or inactive are those of the source. For most assays here, no stated cut-off is given here; in the data, actives have a measured EC50 and inactives only a lower limit.

How the values were obtained:
[1] = inhibitors of firefly luciferase expression or activity, dose response, H4 neuroglioma cells, luminescence (AID 1990); format: functional, cell-based
BJ [2] = test: cytotoxicity toward BJ-TERT fibroblasts, dose response, cell-based, RAS-independent, luminescence (AID 1933); format: functional; conditions: Homo sapiens
[3] = Luminescence Cell-Based Dose Response HTS to Identify Inhibitors of 5'UTR Stem-Loop Driven Prion Protein mRNA Translation in H4 Neuroglioblastoma Cells. [Related pubchem assays: 1827 (Project Summary), 1813 (Primary HTS)]; format: functional
[4] = biological target: T1, Heat shock factor protein 1 (Mus musculus, UniProt P38532); test: inhibition of MG132-induced HSE-luciferase signal, confirmation, cell-based, NIH3T3, luminescence, dose retest (AID 2382); format: functional;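 further: NIH3T3 fibroblasts with HSF1-driven luciferase reporter stressed by proteasome inhibitor MG132; luminescence from HSF1-driven luciferase expression after 8 hours of MG132 stress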
T1 sequence (P38532 whole entry): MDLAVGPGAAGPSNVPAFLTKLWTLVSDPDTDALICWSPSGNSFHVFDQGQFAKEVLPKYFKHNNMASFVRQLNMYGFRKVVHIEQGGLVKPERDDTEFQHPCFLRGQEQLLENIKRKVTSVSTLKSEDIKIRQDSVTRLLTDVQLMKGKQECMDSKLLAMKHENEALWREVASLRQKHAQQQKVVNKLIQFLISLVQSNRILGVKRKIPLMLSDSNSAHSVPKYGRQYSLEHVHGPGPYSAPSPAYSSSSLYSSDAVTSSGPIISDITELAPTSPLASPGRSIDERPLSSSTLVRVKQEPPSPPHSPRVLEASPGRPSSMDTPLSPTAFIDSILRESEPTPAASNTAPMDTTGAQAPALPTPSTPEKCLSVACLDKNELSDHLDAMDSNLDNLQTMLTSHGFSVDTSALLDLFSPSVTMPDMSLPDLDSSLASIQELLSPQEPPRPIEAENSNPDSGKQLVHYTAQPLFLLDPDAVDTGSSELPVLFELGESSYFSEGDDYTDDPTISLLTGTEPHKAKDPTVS

[5] = inhibitors of SNCA 5'UTR-driven reporter translation, confirmation, H4 neuroglioma cells, luminescence (AID 1988); format: functional, cell-based
BJ [6] = test: cells; format: functional, cell-based; conditions: Homo sapiens
BJ [7] = test: cytotoxicity toward BJ-TERT-LT-ST fibroblasts, dose response, cell-based, RAS-independent, luminescence (AID 1935); format: functional; conditions: Homo sapiens;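 further: BJ fibroblasts immortalized with TERT plus LT and ST oncogenes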
[8] = cytotoxicity toward DRD oncogenic fibroblasts, dose response, cell-based, non-viral oncogenic, luminescence (AID 1934); format: functional; conditions: Homo sapiens
[9] = biological target: T2, Replicative DNA helicase DnaB (Mycobacterium tuberculosis, UniProt P9WMR3); test: DnaB intein splicing inhibitors, dose response, biochemical, cell-free fluorescence (AID 449749); format: functional
T2 sequence (P9WMR3 whole entry): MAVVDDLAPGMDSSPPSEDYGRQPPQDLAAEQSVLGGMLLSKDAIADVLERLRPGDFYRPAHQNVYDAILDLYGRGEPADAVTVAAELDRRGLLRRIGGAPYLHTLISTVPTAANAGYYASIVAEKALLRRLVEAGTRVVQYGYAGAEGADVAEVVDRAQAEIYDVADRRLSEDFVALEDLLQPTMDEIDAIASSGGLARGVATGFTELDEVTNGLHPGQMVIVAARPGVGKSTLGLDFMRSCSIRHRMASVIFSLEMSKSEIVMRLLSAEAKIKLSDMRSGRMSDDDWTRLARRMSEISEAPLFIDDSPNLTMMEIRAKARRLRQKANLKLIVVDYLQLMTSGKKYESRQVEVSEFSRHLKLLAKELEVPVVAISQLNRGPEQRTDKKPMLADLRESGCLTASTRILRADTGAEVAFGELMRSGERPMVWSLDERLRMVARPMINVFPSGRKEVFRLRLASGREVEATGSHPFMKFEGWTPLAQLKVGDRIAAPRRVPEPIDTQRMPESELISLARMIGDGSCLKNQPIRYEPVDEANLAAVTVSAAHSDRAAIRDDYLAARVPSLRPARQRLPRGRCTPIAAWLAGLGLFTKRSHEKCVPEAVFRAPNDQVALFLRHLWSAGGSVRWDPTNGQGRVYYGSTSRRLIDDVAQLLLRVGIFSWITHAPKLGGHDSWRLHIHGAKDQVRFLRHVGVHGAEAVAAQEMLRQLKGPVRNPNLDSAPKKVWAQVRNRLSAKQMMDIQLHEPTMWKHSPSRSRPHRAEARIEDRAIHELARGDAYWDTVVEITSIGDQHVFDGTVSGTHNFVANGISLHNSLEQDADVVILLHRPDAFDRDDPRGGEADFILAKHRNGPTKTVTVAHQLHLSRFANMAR

BJ [10] = test: cytotoxicity toward Ras-transformed BJeLR fibroblasts, dose response, cell-based, alamar blue fluorescence, cherrypicked samples (AID 2631); format: functional; conditions: Homo sapiens;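 further: confirmatory dose-response assay in RAS-dependent BJ fibroblasts engineered with TERT, LT and ST, with cytotoxicity read by fluorescence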
Protein RecA = biological target: T3, Protein RecA (Mycobacterium tuberculosis, UniProt P9WHJ3); test: Fluorescence Cell-Free Homogeneous Dose Retest to Identify Inhibitors of RecA-Intein Splicing Activity. [Related pubchem assays (depositor defined):AID2097, AID2223, AID489010, AID492950]; format: functional
T3 sequence (P9WHJ3 whole entry): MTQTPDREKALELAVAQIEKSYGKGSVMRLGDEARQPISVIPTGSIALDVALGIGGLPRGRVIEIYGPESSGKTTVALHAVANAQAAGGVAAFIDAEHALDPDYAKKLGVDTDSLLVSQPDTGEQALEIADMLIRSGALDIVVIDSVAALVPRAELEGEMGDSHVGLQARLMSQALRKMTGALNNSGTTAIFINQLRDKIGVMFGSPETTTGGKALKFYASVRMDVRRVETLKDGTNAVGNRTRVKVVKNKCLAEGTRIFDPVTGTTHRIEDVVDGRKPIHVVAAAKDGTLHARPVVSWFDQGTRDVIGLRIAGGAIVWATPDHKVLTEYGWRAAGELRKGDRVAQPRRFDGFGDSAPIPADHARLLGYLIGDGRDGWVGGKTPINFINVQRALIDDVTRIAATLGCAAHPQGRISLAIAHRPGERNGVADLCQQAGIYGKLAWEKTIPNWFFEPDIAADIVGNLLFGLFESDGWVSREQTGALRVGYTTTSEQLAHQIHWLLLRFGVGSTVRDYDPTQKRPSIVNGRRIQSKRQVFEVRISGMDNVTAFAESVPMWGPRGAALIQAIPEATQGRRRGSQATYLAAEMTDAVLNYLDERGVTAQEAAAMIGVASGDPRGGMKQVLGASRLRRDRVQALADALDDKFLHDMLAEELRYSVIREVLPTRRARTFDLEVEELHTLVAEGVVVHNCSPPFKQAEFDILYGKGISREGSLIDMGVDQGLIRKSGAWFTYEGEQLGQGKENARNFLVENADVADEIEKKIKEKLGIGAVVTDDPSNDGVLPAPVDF

Nonstructural protein 1 = Nonstructural protein 1 (Influenza A virus, UniProt Q194T2); format: functional, Influenza A virus (A/California/07/2009(H1N1))
Sequence of Nonstructural protein 1 (Q194T2 whole entry): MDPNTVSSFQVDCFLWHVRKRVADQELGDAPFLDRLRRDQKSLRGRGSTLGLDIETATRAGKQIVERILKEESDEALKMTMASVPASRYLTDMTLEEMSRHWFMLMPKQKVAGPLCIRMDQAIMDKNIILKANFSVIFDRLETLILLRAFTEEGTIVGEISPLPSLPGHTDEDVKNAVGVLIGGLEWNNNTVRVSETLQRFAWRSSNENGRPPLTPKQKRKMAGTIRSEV

Vero = test: Vero E6 cell cytotoxicity, dose response, cytotoxicity control (AID 540298); format: functional; conditions: Chlorocebus sabaeus
MDCK [11] = test: MDCK cell cytotoxicity, dose response, cytotoxicity control (AID 540296); format: functional; conditions: Canis lupus familiaris
MDCK [12] = test: antiviral activity against H1N1 influenza, dose response, cell-based, strain KY136 (AID 540257); format: functional; conditions: Canis lupus familiaris
[13] = biological target: T4, Beta-adrenergic receptor kinase 1 (Homo sapiens, UniProt P25098); test: aptamer displacement from bead-bound GRK2 – biochemical, cherry pick 1, bead flow cytometry, dose response (AID 504500)
T4 sequence (P25098 whole entry): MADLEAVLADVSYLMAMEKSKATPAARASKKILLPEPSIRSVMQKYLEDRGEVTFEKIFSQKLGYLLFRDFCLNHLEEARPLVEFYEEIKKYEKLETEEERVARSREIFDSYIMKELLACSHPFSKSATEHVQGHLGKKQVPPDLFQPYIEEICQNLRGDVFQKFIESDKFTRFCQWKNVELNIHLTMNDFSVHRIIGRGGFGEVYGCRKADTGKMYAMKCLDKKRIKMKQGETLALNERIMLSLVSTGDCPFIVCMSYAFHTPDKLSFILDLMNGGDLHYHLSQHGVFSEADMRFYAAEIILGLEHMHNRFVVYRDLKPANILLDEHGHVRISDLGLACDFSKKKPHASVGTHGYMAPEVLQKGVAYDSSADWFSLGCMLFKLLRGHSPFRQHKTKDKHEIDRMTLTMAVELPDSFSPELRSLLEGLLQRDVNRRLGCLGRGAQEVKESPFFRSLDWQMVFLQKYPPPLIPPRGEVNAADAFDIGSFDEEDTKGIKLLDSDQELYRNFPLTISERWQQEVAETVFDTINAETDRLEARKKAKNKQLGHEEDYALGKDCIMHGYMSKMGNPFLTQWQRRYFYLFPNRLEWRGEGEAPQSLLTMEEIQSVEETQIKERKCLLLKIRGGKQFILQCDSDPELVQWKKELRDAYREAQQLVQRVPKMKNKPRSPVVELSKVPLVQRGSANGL

[14] = biological target: T4, Beta-adrenergic receptor kinase 1; test: GRK2 inhibitors displacing RNA aptamer, dose response, biochemical, flow cytometry beads, FAM-aptamer, powder set 1 (AID 588720)
[15] = biological target: T5, Small ubiquitin-related modifier 1 (Homo sapiens, UniProt P63165); test: inhibitors of SUMO1 peptide binding, dose response, biochemical, fluorescence polarization, uHTS hits (AID 624382); format: functional; conditions: read-out: IC50_Mean
T5 sequence (P63165 whole entry): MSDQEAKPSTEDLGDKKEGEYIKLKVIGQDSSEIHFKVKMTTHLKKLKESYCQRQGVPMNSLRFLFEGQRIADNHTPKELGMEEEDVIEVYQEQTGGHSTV

[16] = biological target: T5, Small ubiquitin-related modifier 1; test: inhibitors of SUMO1 partner interactions, dose response, biochemical, FRET (AID 624383); format: functional; conditions: read-out: IC50_Mean

Compound: COc1cc(C2CC(c3cccs3)=NN2C(=O)CCl)ccc1OC(F)F (stereo unspecified)
- EC50 [1]: > 120 µM (not active)
- EC50 (BJ [2]): 0.625 µM (active)
- EC50 [3]: 11 µM (active)
- EC50 [4]: 3.04 µM (active)
- EC50 [5]: 8.46 µM (active)
- EC50 (BJ [6]): 2.56 µM (active)
- EC50 (BJ [7]): 4.47 µM (inconclusive)
- EC50 [8]: 1.95 µM (active)
- AC50 [9]: 1.51 µM (active)
- EC50 (BJ [10]): 0.608 µM (active)
- EC50 (Protein RecA): 1.13 µM (active)

Compound: COc1cccc(/C=C2\SC(=S)N(CCCC(=O)N3CCCC3)C2=O)c1
- IC50 (Nonstructural protein 1): 66.8 µM (active)
- AC50 [9]: 71.1 µM (active)
- CC50 (Vero): 12.8 µM (active)
- EC50 (Protein RecA): > 380 µM (inactive)
- CC50 (MDCK [11]): > 40 µM (active)
- IC50 (MDCK [12]): 32.9 µM (active)

Compound: CC(CS(=O)(=O)c1ccc2c(c1)NC(=O)CS2)C(=O)NCc1ccccc1Cl (stereo unspecified)
- EC50 [13]: 7.53 µM (active)
- EC50 [14]: 0.638 µM (active)
- IC50 [15]: > 66.6 µM (inactive)
- IC50 [16]: 4.08 µM (active)
